Holding throughout (type): cell-based, human
The subject of data set [1] is reactive oxygen species. The data set is described as follows: ROS analysis, flow cytometry using H2DCF-DA. To be noted: engineered cells. The text has this: 2′7′ dichlorodihydrofluorescein diacetate (H2DCF-DA) is a non-fluorescent cell permeable compound. The endogenous esterase enzyme inside the cell cleaves the diacetate part, and it can no longer pass out of the cell. Thus it accumulates in the cell. Then H2DCF reacts with ROS to form fluorescent dichlorofluorescene (DCF) which can be measured by flow cytometry in FL1 channel. • 1. Seed cells at 3×10^5 cells per dish in 60 mm dishes and allow to grow overnight. • 2. Treat with the test compound for different period of time (1-10 hr). • 3. Maintain one dish for untreated cells, compound treated cell and positive control dish (hydrogen peroxide treated) for each time point. • 4. Incubate the cells with 10 μM of H2DCF-DA for 10 minutes at 37° C. • 5. For positive control cells, after 5 minutes of H2DCF-DA loading, add 500 μM of hydrogen peroxide and incubate for 5 minutes further. • 6. Harvest the cell by trypsinization. • 7. Wash with cold PBS-twice. • 8. Resuspend the pellet in 100 μl of PBS and transfer into 5 ml FACS tube. • 9. Add 5 μl of propidium iodide (50 μg/ml) and incubate for 10 minutes on ice in dark. • 10. Add 400 μl of PBS and analyze by flow cytometry (Becton-Dickinson). • 11. Acquire the data and analyze using CellQuest software program. • 12. Take only propidium iodiode negative cells (viable cells) for the analysis for DCF staining using the FL1 channel, PI in FL3 channel, plot a quadrant chart.
On the technique in general: Flow cytometry measures light scatter and fluorescence of single cells or particles in a stream.

The test system of data set [2] is BJ-TERT/LT/ST/RAS^V12 cells. Put plainly: Calcein AM viability assay, dilution series, BJ-TERT/LT/ST/RAS^V12 tumorigenic cells. The procedure:
Described here is work carried out to identify compounds with increased potency or activity in the presence of hTERT, LT, ST, E6, E7 or RAS^V12. […] The primary screen tested (in quadruplicate) the effect of treating tumorigenic […], corresponding to 10 μM for a compound with a molecular weight of 400, which is the approximate median molecular weight of the libraries. […] In live cells, calcein AM is cleaved by intracellular esterases, forming the anionic fluorescent derivative calcein, which cannot diffuse out of live cells. […] The IC50 value (concentration required to inhibit 50% of the calcein AM signal) was calculated for each compound in each cell line (Table 1).
Calcein acetoxylmethyl ester (AM) is a cell membrane-permeable, non-fluorescent compound that is cleaved by intracellular esterases to form the anionic, cell-impermeable, fluorescent compound calcein. Viable cells are stained by calcein because of the presence of intracellular esterases and because the intact plasma membrane prevents fluorescent calcein from leaking out of cells (Wang et al., 1993, supra). Cells were seeded in 384-well plates using a Zymark Sciclone ALH, treated with each […], washed with phosphate-buffered saline on a Packard Minitrak with a 384-well washer and incubated for four hours with 0.7 μg/mL calcein (Molecular Probes). Total fluorescence intensity in each well was recorded on a Packard Fusion platereader, and converted to a percent inhibition of signal by subtracting the instrument background and dividing by the average signal obtained when cells were not treated with any compound.
Compounds to be retested were purchased from manufacturers. Stocks were prepared in DMSO at a concentration of 1 mg/ml in 384-well polypropylene plates with a 16-point, two-fold dilution dose curve of each compound in a column, in duplicates. Column 1-2 and 23-24 were left empty for controls. Daughter retest plates were prepared from stock retest plate by diluting 66.6 fold in DMEM in 384-well deep-deep well plates (4.5 μl transfer into 300 μl). Cells were seeded at a density of 6000 per well in 40 μl, and 20 μl was added from a daughter retest plate. […]
The IC50 in primary BJ cells was divided by the IC50 in BJ-TERT/LT/ST/RAS^V12 tumorigenic cells to obtain a tumor selectivity ratio for each compound. The compound selectivity for each genetic element was determined by calculating the selectivity ratio for each subsequent pair of cell lines in a series.

In data set [3] the test system is tumor cells (BJELR cells) versus normal cells (BJEH cells). Put plainly: Testing of erastin analogs for activity and selectivity in tumor cells versus normal cells. An excerpt: Applicants additionally tested 135 analogs of erastin for activity and selectivity in tumor cells versus normal cells. […] This compound was named erastin B (see FIG. 8). […] BJELR cells are BJ-TERT/LT/ST/RAS^V12 cells, and BJEH are BJ-TERT cells.

Data set [4] relates to BJELR cells. The data set is described as follows: Screen of ACL library for suppressors of erastin activity in BJELR cells. To be noted: 5 μg/ml erastin. The procedure: ACL library comprises 1,540 compounds and all compounds were prepared in DMSO at […] in 384-well polypropylene plates and stored at −20° C. Replica daughter plates for each library plate were prepared using Zymark Scilone ALH. The daughter plates were diluted 50 fold in DMEM and compound concentration in the daughter plate is 80 μg/ml with 2% DMSO. In assay plate compound from the daughter plate is diluted 20 fold with cell suspension, thus final concentration of each compound is 4 μg/ml.
BJELR cells were seeded at 6000 cells/well (57 μl) (for co-treatment screen) and 5000 cells/well (57 μl) (for pretreatment screen) in 384-well black, clear bottom plates using syringe bulk dispenser. For co-treatment suppressor screen, cells were treated with 3 μl of compound from the daughter plates of ACL library (final concentration in assay plate at 4 μg/ml) and at the same time treated with 5 μg/ml of erastin. Compound transfer was done using 384 fixed cannula head. Plates were incubated for 48 hours at 37° C. in incubator with 5% CO2. For the pretreatment screens, cells were pre-incubated with the compound from ACL daughter library plate for overnight and then treated with 5 μg/ml of erastin for further 48 hours. […] Fluorescence intensity was determined using Fusion platereader with filters centered in an excitation of 485 nm and emission of 535 nm. […]

For data set [5], the system named is TOP1. Put plainly: Western blot of TOP1 expression in okadaic acid-treated BJ primary cells. An excerpt:
(A-C) Western blot of lysates from BJ, BJ-TERT, BJ-TERT/LT/ST, BJ-TERT/LT/ST/RAS^V12, BJ-TERT/LT/RAS^V12 and BJ-TERT/LT/RAS^V12/ST cells with an antibody directed against topoisomerase II (A) or TOPI (B, C). In panel (C), cells were transfected with an siRNA directed against TOPI, lamic A/C or with a control double strand DNA duplex of the same length (TOPI dsDNA). In each case, the blot was probed with an antibody against eIF-4E to identify differences in the amount of protein loaded. The relative amount is quantitated below each band. […] Cell number was determined after transfection with an siRNA directed against TOPI and treatment with the indicated concentrations of camptothecin. (E) Okadaic acid, an inhibitor of PP2A and other cellular phosphatases, sensitizes primary human cells to camptothecin. BJ primary cells were treated simultaneously with the indicated concentrations of both camptothecin and okadaic acid and the effect on calcein AM viability staining was determined. […] BJ primary cells were treated with the indicated concentrations of okadaic acid and the expression level of TOPI was determined by western blot. The relative amount is quantitated below each band. […]
On the technique in general: Immunoblotting shows a protein as a band on a membrane.

Data set [6] has as its system BJ primary cells. The data set is described as follows: Co-treatment of BJ primary cells with camptothecin or erastin and a second compound, calcein AM viability staining. To be noted: for effect on BJ cell viability on its own: calcein AM; for sensitization of BJ cells to camptothecin: simultaneous treatment with camptothecin. An excerpt:
(A-C) Western blot of lysates from BJ, BJ-TERT, BJ-TERT/LT/ST, BJ-TERT/LT/ST/RAS^V12, BJ-TERT/LT/RAS^V12 and BJ-TERT/LT/RAS^V12/ST cells with an antibody directed against topoisomerase II (A) or TOPI (B, C). In panel (C), cells were transfected with an siRNA directed against TOPI, lamic A/C or with a control double strand DNA duplex of the same length (TOPI dsDNA). In each case, the blot was probed with an antibody against eIF-4E to identify differences in the amount of protein loaded. The relative amount is quantitated below each band. […] Cell number was determined after transfection with an siRNA directed against TOPI and treatment with the indicated concentrations of camptothecin. (E) Okadaic acid, an inhibitor of PP2A and other cellular phosphatases, sensitizes primary human cells to camptothecin. BJ primary cells were treated simultaneously with the indicated concentrations of both camptothecin and okadaic acid and the effect on calcein AM viability staining was determined. […] BJ primary cells were treated with the indicated concentrations of okadaic acid and the expression level of TOPI was determined by western blot. The relative amount is quantitated below each band.
The compounds in group (iii) are camptothecin (CPT) and a novel compound from a combinatorial library, which Applicants have named erastin, for eradicator of RAS and ST-expressing cells (FIG. 2). Efficient CPT-induced and erastin-induced cell death requires the presence of both ST and RAS^V12 (FIGS. 3 and 4 and Table 1). Although CPT and erastin have a similar genetic basis of selectivity, they have distinct mechanisms of action. […] The phosphatase inhibitor okadaic acid was capable of sensitizing otherwise resistant BJ primary cells to CPT (FIG. 5E), possibly because okadaic acid upregulates TOP1 (FIG. 5F).

Data set [7] concerns BJ-TERT/LT/ST/RAS^V12 cells. The data set is described as follows: Pan-caspase inhibitor block of compound-induced cell death. To be noted: 50 μM inhibitor.

For `COc1cccc2c1C(=O)c1c(O)c3c(c(O)c1C2=O)C[C@@](O)(C(=O)CO)C[C@@H]3O[C@H]1C[C@H](N)[C@H](O)[C@H](C)O1` [Doxorubicin, doxorubicin], the “formation of reactive oxygen species” value in data set [1] is recorded as “did not observe the formation of ROS”.

Turning to `CCOc1ccccc1-n1c(C(C)N2CCN(C(=O)COc3ccc(Cl)cc3)CC2)nc2ccccc2c1=O` (stereo not drawn) [Erastin, erastin], in data set [2] (BJ-TERT/LT/ST/RAS^V12 cells, within 18 hours), the “effectiveness of cell death” value is listed as 100%.

On to erastin B, for which the “activity and selectivity in tumor cells versus normal cells” value in data set [3] was “active and selective, but less potent than erastin”.

Take `Cc1c(C)c2c(c(C)c1O)CC[C@@](C)(CCC[C@H](C)CCC[C@H](C)CCCC(C)C)O2` [α-tocopherol]: the “suppression of erastin activity” value in data set [4] was “suppress erastin activity”.

For `C=C1[C@@H](O)[C@@H]2O[C@]3(CC[C@H](/C=C/[C@@H](C)[C@@H]4CC(C)=C[C@@]5(O[C@H](C[C@@](C)(O)C(=O)O)CC[C@H]5O)O4)O3)CC[C@H]2O[C@@H]1[C@@H](O)C[C@H](C)[C@H]1O[C@@]2(CCCCO2)CC[C@H]1C` [okadaic acid], the “expression level of TOP1” value in data set [5] was “stimulates expression of TOP1”. The “sensitization of BJ or BJ-TERT cells to erastin” value in data set [6] is on record as “does not render BJ or BJ-TERT cells sensitive to erastin”. The “effect on BJ cell viability on its own” value is listed as “no effect on its own” in data set [6] (3.4 nM) and “kills BJ cells” in data set [6] (highest concentrations tested). The “sensitization of BJ cells to camptothecin” value in data set [6] is “renders BJ cells sensitive to camptothecin”.

As for `COc1cccc2c1C(=O)c1c(O)c3c(c(O)c1C2=O)C[C@@](O)(C(C)=O)C[C@@H]3O[C@H]1C[C@H](N)[C@H](O)[C@H](C)O1` [Daunorubicin, daunorubicin], the “formation of reactive oxygen species” value in data set [1] is “did not observe the formation of ROS”.

With `O=C1c2c(O)ccc(O)c2C(=O)c2c(NCCNCCO)ccc(NCCNCCO)c21` [Mitoxantrone, mitoxantrone], the “formation of reactive oxygen species” value in data set [1] is given as “did not observe the formation of ROS”. Besides, the “Tumor Selectivity” value in data set [2] (IC50 in primary BJ cells divided by IC50 in BJ-TERT/LT/ST/RAS^V12 tumorigenic cells) was 16.

With `COC(=O)CC(NC(=O)OC(C)(C)C)C(=O)CF` [BOC-D-FMK, Boc-Asp(Ome)-fluoromethyl ketone], in data set [7], the “block of cell death induced by CPT” value is reported as “partially blocked cell death induced by CPT” and the “block of cell death induced by erastin” value is recorded as “not by erastin”.

Turning to `COc1cc([C@@H]2c3cc4c(cc3[C@H](O)[C@H]3COC(=O)[C@H]23)OCO4)cc(OC)c1OC` [podophyllotoxin], in data set [6], the “sensitization of BJ cells to camptothecin” value is on record as “does not sensitize BJ or BJ-TERT cells to CPT”.

The values above are taken from patent US8124365B2, “Identification of genotype-selective anti-tumor agents” (Whitehead Institute for Biomedical Research, priority 2003, dated 2012).
